Results on 27 compounds are retold here after patent US8404713B2, “Quinolinone derivatives as PARP inhibitors” (Janssen Pharmaceutica NV, priority 2007, dated 2013).

Where only a bound is given, the exact number is not on record here.

The target of one test is T1, Human PARP-1 enzyme (Homo sapiens, UniProt P09874).
T1 construct: purchased Trevigen
The test can be described thus: In vitro scintillation proximity assay (SPA) for PARP-1 inhibitory activity. The format is biochemical. The conditions noted are these: nicked DNA activated PARP-1, [3H]-NAD+, biotinylated histones; tested between 10^-5 M and 3x10^-9 M; read-out: in vitro SPA assay PARP-1 pIC50 (converted). The protocol:
C.1. In Vitro Scintillation Proximity Assay (SPA) for PARP-1 Inhibitory Activity
Compounds of the present invention were tested in an in vitro assay based on SPA technology (proprietary to GE healthcare).
In principle, the assay relies upon the well established SPA technology for the detection of poly(ADP-ribosyl)ation of biotinylated target proteins, i.e histones. This ribosylation is induced using nicked DNA activated PARP-1 enzyme and [^3H]-nicotinamide adenine dinucleotide ([^3H]-NAD^+) as ADP-ribosyl donor.
Histones (type II-A, supplier: Sigma) were biotinylated using the biotinylation kit of Amersham and stored aliquoted at −20° C. A stock solution of 100 mg/ml SPA poly(vinyl toluene) (PVT) beads (supplier: Amersham) was made in PBS. A stock solution of 61.6 nM [^3H]-NAD^+ was made by adding [^3H]-NAD^+ (0.1 mCi/ml, supplier: Perkin Elmer) to incubation buffer (50 mM Tris/HCl, pH 8; 0.2 mM DTT; 4 mM MgCl2). A solution of 4 mM NAD^+ (supplier: Sigma) was made. Human PARP-1 enzyme was obtained from Trevigen. Biotinylated histones and PVT-SPA beads were mixed and pre-incubated for 30 min. at room temperature. PARP-1 enzyme (concentration was lot dependent) was mixed with the nicked DNA and the mixture was pre-incubated for 30 min. at 4° C. Equal parts of this histones/PVT-SPA beads solution and PARP-1 enzyme/DNA solution were mixed and 75 μl of this mixture together with 1 μl of compound in DMSO and 25 μl of [^3H]-NAD^+ was added per well into a 96-well microtiterplate. The final concentrations in the incubation mixture were 2 μg/ml for the biotinylated histones, 2 mg/ml for the PVT-SPA beads, 0.25 μg/ml for the nicked DNA and between 0.1-0.2 μg/ml for the PARP-1 enzyme. After incubation of the mixture for 20 min. at room temperature, the reaction was terminated by adding 100 μl of 4 mM NAD^+ in water (final concentration 2 mM) and plates were mixed. The beads were sedimented by centrifugation (10 min, 800 rpm). and plates transferred to a TopCountNXT™ (Packard) for scintillation counting, values were expressed as counts per minute (cpm). For each experiment, controls (containing PARP-1 enzyme and DMSO without compound), a blank incubation (containing DMSO but no PARP-1 enzyme, no DNA or compound) and samples (containing PARP-1 enzyme, DNA and compound dissolved in DMSO) were run in parallel. All compounds tested were dissolved and eventually further diluted in DMSO. A dose-response curve was made wherein the compounds were tested at concentrations between 10^−5M and 3×10^−9M. In each test, the blank value was subtracted from both the control and the sample values. The control sample represented maximal PARP-1 enzyme activity. For each sample, the amount of cpm was expressed as a percentage of the mean cpm value of the controls. When appropriate, IC50-values (concentration of the drug, needed to reduce the PARP-1 enzyme activity to 50% of the control) were computed using linear interpolation between the experimental points just above and below the 50% level. Herein the effects of test compounds are expressed as pIC50 (the negative log value of the IC50-value). As a reference compound, 4-amino-1,8-naphthalimide was included to validate the SPA assay.

A further test deals with T2, TANK-2 enzyme (Homo sapiens, UniProt Q9H2K2).
T2 construct: made in house
T2 sequence (Q9H2K2 1-1166): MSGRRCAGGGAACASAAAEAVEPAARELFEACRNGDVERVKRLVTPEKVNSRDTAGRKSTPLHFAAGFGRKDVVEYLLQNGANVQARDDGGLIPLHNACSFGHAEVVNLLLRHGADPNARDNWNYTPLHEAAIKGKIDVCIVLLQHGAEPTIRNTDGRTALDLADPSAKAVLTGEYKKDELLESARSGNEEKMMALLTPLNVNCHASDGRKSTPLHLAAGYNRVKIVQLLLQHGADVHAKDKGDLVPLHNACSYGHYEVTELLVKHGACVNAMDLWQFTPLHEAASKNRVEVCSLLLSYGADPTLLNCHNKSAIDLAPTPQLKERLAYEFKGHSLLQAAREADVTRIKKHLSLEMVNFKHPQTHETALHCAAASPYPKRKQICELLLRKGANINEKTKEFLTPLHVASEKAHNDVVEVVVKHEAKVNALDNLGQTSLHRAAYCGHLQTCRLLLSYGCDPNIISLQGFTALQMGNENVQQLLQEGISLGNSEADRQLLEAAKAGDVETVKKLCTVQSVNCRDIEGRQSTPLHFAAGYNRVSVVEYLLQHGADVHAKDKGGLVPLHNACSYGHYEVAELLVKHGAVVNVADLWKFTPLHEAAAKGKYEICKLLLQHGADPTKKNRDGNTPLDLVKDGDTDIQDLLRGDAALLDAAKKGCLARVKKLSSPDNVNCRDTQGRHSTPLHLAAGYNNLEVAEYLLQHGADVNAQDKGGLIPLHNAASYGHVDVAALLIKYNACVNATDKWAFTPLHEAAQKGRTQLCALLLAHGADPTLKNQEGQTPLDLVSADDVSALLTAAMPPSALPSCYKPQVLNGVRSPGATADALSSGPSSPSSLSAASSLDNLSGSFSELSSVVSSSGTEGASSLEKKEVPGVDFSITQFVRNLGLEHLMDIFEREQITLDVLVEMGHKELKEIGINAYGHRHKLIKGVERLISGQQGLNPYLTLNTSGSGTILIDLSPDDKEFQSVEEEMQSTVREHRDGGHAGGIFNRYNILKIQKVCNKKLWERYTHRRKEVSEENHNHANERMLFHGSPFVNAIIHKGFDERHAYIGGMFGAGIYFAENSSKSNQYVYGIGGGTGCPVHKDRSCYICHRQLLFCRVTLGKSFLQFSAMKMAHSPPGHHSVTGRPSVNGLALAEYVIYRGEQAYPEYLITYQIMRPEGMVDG
The test is described as follows: In vitro scintillation proximity assay (SPA) for TANK-2 inhibitory activity. The format is biochemical. The settings on record: auto-poly(ADP-ribosyl)ation, Ni flash plates; 96-well results if available, otherwise 384-well; tested between 10^-5 M and 3x10^-8 M; read-out: in vitro SPA assay TANK-2 pIC50 (converted). How it is done: C.2. In Vitro Scintillation Proximity Assay (SPA) for TANK-2 Inhibitory Activity
Compounds of the present invention were tested in an in vitro assay based on SPA technology with Ni Flash plates (96 or 384 well).
In principle, the assay relies upon SPA technology for the detection of auto-poly(ADP-ribosyl)ation of TANK-2 protein using [^3H]-nicotinamide adenine dinucleotide ([^3H]-NAD^+) as ADP-ribosyl donor.
A stock solution of 100 nM [^3H]-NAD^+/NAD (0.1 mCi/ml, supplier: Perkin Elmer) and 0.25 mM NAD (Sigma) was made in assay buffer (60 mM Tris/HCl, pH 7.4; 0.9 mM DTT; 6 mM MgCl2). The TANK-2 enzyme was produced as described in EP1238063. 60 μl of assay buffer, together with 1 μl of compound in DMSO, 20 μl of [^3H]-NAD^+/NAD and 20 μl of TANK-2 enzyme (final concentration 8 μg/ml) was added per well into a 96-well Ni-coated flash plate (Perkin Elmer). After incubation of the mixture for 120 min. at room temperature, the reaction was terminated by adding 60 μl of stopsolution (42.6 mg NAD in 6 ml H2O). The plates were covered with a plate sealer and placed in a TopCountNX™ (Packard) for scintillation counting. Values were expressed as counts per minute (cpm). For each experiment, controls (containing TANK-2 enzyme and DMSO without compound), a blank incubation (containing DMSO but no TANK-2 enzyme or compound) and samples (containing TANK-2 enzyme and compound dissolved in DMSO) were run in parallel. All compounds tested were dissolved and eventually further diluted in DMSO. […] In each test, the blank value was subtracted from both the control and the sample values. The control sample represented maximal TANK-2 enzyme activity. For each sample, the amount of cpm was expressed as a percentage of the mean cpm value of the controls. When appropriate, IC50-values (concentration of the drug, needed to reduce the TANK-2 enzyme activity to 50% of the control) were computed using linear interpolation between the experimental points just above and below the 50% level. Herein the effects of test compounds are expressed as pIC50 (the negative log value of the IC50-value). As reference compounds, 3-aminobenzamide and 4-amino-1,8-naphtalimide were included to validate the SPA assay. Herein the assay was described using 96-well plates. In the assay using 384-well plates the same final concentrations were used and volumes were adapted.
Background: Scintillation proximity formats need no separation of bound from free tracer.

T1 sequence (P09874 whole entry): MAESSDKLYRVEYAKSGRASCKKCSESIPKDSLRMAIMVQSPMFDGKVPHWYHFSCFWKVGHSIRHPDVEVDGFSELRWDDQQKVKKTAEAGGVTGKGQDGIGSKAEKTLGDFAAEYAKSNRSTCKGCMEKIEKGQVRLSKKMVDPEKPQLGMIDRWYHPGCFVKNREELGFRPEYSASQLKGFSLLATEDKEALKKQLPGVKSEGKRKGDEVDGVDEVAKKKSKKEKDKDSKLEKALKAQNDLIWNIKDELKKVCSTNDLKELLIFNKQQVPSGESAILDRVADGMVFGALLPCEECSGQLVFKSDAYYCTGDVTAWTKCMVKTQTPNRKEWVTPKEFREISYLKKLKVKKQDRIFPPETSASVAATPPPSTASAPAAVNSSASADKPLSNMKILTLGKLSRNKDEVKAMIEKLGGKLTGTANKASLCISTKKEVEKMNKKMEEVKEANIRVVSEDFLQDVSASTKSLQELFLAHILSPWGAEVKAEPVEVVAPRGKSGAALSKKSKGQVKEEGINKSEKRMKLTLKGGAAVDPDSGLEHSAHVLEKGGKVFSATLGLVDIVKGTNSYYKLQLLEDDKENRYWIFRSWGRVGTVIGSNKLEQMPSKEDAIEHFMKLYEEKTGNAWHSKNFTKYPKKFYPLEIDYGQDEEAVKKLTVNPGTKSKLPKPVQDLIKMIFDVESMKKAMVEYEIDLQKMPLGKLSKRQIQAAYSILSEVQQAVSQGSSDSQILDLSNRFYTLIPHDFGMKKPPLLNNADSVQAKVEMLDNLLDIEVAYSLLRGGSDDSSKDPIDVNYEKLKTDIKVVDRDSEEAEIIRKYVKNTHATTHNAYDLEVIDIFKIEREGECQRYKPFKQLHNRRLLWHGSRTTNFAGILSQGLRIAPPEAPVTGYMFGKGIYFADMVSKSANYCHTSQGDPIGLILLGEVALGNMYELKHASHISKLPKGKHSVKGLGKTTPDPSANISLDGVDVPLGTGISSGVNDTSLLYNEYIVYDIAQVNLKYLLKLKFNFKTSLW

As for `CCc1cc2ccc(CN3CCC(Cc4ccccc4)CC3)cc2[nH]c1=O` [Compound 31], the IC50 on Human PARP-1 enzyme is 403 nM; on TANK-2 enzyme it was 3120 nM.

For the compound `CCc1cc2ccc(C(O)CN3CCN(c4ncccn4)CC3)cc2[nH]c1=O` (centres unmarked) [Compound 32], the figures for the IC50 at Human PARP-1 enzyme and on TANK-2 enzyme were 89.5 nM and 92.3 nM, respectively.

On to `CCc1cc2ccc(CN3CCN(c4ccncc4)CC3)cc2[nH]c1=O` [Compound 35], for which the IC50 was 1.14 nM at Human PARP-1 enzyme and 398 nM on TANK-2 enzyme.

Consider `CCc1cc2ccc(C(O)CN3CCC(Cc4ccccc4)CC3)cc2[nH]c1=O` (centres unmarked) [Compound 34], for which the IC50 was 94.6 nM at Human PARP-1 enzyme and 391 nM at TANK-2 enzyme.

Turning to `CCc1cc2ccc(CNCCN3CCN(c4ncccn4)CC3)cc2[nH]c1=O` [Compound 24], the values for the IC50 on Human PARP-1 enzyme and on TANK-2 enzyme were 80.4 nM and 1000 nM, respectively.

Consider `CCc1cc2ccc(CCCN3CCN(c4ccc(C#N)cn4)CC3)cc2[nH]c1=O` [Compound 8], for which the IC50 on Human PARP-1 enzyme was 170 nM; at TANK-2 enzyme, 63.2 nM.

Consider `Cc1cc2ccc(C(C)N3CCN(c4ccccc4Cl)CC3)cc2[nH]c1=O` (centres unmarked) [Compound 76], for which the IC50 at Human PARP-1 enzyme was 0.646 nM; at TANK-2 enzyme it was 1550 nM.

In the case of `CCc1cc2ccc(CN3CCc4ccccc4C3)cc2[nH]c1=O` [Compound 29], the results for the IC50 on Human PARP-1 enzyme and on TANK-2 enzyme were 20 nM and 424 nM, respectively.

On to `CCc1cc2ccc(CNCc3ccccc3)cc2[nH]c1=O` [Compound 49], for which the IC50 was 42.9 nM on Human PARP-1 enzyme and 155 nM at TANK-2 enzyme.

Consider `COCCNC1CCN(C(C)c2ccc3cc(C)c(=O)[nH]c3c2)CC1` (centres unmarked) [Compound 55], for which the figures for the IC50 on Human PARP-1 enzyme and on TANK-2 enzyme were 92 nM and > 10000 nM, respectively.

As for `Cc1cc2ccc(C(C)N3CCCCC3)cc2[nH]c1=O` (centres unmarked) [Compound 53], the IC50 is 49.8 nM at Human PARP-1 enzyme and > 10000 nM on TANK-2 enzyme.

On to `Cc1cc2ccc(CN3CCN(c4ncccn4)CC3)cc2[nH]c1=O` [Compound 26], for which the IC50 was 237 nM at Human PARP-1 enzyme and 1980 nM at TANK-2 enzyme.

As to `Cc1cc2ccc(C(C(C)C)N3CCN(c4ccc(C#N)cn4)CC3)cc2[nH]c1=O` (centres unmarked) [Compound 66], the IC50 at Human PARP-1 enzyme was 195 nM; on TANK-2 enzyme it was 1230 nM.

As to `Cc1cc2ccc(C(C)N3CC=C(c4ccccc4)CC3)cc2[nH]c1=O` (centres unmarked) [Compound 51], the IC50 on Human PARP-1 enzyme is 1.49 nM; on TANK-2 enzyme, 1280 nM.

Regarding `CCc1cc2ccc(CN3CCN(c4ncc(C(=O)O)cn4)CC3)cc2[nH]c1=O` [Compound 12], the IC50 is 77.1 nM on Human PARP-1 enzyme and 65.5 nM on TANK-2 enzyme.

As to `CCc1cc2c(OC)cc(CN3CCN(c4ccc(C#N)cn4)CC3)cc2[nH]c1=O` [Compound 69], on TANK-2 enzyme, the IC50 is 57.5 nM.

With `CCc1cc2ccc(CNCCN3CCOCC3)cc2[nH]c1=O` [Compound 19], the IC50 at Human PARP-1 enzyme was 4.6 nM; on TANK-2 enzyme it was 5870 nM.

Regarding `Cc1cc2ccc(C(C)N3CCN(c4ccc(F)cc4F)CC3)cc2[nH]c1=O` (centres unmarked) [Compound 52], the IC50 on Human PARP-1 enzyme is 1.42 nM; on TANK-2 enzyme, 2420 nM.

As for `CCc1cc2ccc(CNCc3ccc(F)cc3)cc2[nH]c1=O` [Compound 48], the values for the IC50 on Human PARP-1 enzyme and on TANK-2 enzyme were 24.4 nM and 254 nM, respectively.

As to `Cc1cc2ccc(C(C3CCCCC3)N3CCN(c4ccccn4)CC3)cc2[nH]c1=O` (centres unmarked) [Compound 75], the IC50 was 309 nM on Human PARP-1 enzyme and > 10000 nM at TANK-2 enzyme.

With `CCc1cc2ccc(CN3CCN(c4cnccn4)CC3)cc2[nH]c1=O` [Compound 36], the IC50 was 2.55 nM on Human PARP-1 enzyme and 222 nM on TANK-2 enzyme.

For the compound `Cc1cc2ccc(C(C)N3CCN(c4ncccc4C(F)(F)F)CC3)cc2[nH]c1=O` (centres unmarked) [Compound 56], the IC50 is 225 nM at Human PARP-1 enzyme and 1920 nM at TANK-2 enzyme.

Consider `Cc1cc2ccc(C(C)N3CCC(c4ccc(Cl)cc4)CC3)cc2[nH]c1=O` (centres unmarked) [Compound 50], for which the IC50 on Human PARP-1 enzyme is 1.5 nM; at TANK-2 enzyme it was 2800 nM.

As for `Cc1cc2ccc(CN3CCN(c4ccccn4)CC3)cc2[nH]c1=O` [Compound 57], the IC50 at Human PARP-1 enzyme was 1.48 nM; at TANK-2 enzyme, 4220 nM.

As for `CCc1cc2ccc(C(CO)N3CCOCC3)cc2[nH]c1=O` (centres unmarked) [Compound 5], the results for the IC50 at Human PARP-1 enzyme and on TANK-2 enzyme were 82.8 nM and 1440 nM, respectively.

On to `CCc1cc2ccc(CN3CC=C(c4ccccc4)CC3)cc2[nH]c1=O` [Compound 21], for which the values for the IC50 at Human PARP-1 enzyme and at TANK-2 enzyme were 1.03 nM and 986 nM, respectively.

In the case of `Cc1cc2ccc(C(C3CCCCC3)N3CCN(c4ccccc4C#N)CC3)cc2[nH]c1=O` (centres unmarked) [Compound 67], the IC50 was 708 nM at Human PARP-1 enzyme and > 10000 nM on TANK-2 enzyme.
